Reference: ChEMBL document CHEMBL1146991, “The synthesis of highly potent, selective, and water-soluble agonists at the human adenosine A3 receptor” (Bioorg Med Chem Lett, 2006)
Values after ≈ are worked out from the molar mass of the structure shown.

Experiments:
Adenosine receptor A3 [1] = molecular target: T1, Adenosine receptor A3 (Homo sapiens, UniProt P0DMS8); assay: Binding affinity to human adenosine A3 receptor
T1 sequence (P0DMS8 whole entry): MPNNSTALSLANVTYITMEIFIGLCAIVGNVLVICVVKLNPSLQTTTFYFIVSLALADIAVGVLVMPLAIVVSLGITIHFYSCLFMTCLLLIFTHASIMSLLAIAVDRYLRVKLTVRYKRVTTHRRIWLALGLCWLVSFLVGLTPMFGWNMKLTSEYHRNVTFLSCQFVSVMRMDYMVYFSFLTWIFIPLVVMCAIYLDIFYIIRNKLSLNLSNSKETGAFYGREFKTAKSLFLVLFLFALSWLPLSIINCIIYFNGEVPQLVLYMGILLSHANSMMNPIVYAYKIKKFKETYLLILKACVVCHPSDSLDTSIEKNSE

[2] = molecular target: Adenosine receptors; A1 & A3 (Homo sapiens) (UniProt P30542+P0DMS8); assay: Selectivity for human adenosine A3 receptor over human adenosine A1 receptor; type: protein assay
Adenosine receptors; A1 & A3 (Homo sapiens), sequence (P30542 whole entry, looked up, one chain of several): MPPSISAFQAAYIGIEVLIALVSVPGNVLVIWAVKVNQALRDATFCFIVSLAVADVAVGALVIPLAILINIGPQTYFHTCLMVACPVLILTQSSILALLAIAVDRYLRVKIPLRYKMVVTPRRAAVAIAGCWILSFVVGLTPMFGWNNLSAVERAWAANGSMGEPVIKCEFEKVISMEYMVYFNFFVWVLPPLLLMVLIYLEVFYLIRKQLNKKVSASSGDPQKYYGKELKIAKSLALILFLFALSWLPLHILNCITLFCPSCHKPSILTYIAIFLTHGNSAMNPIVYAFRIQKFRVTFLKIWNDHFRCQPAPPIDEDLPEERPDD

[3] = molecular target: Adenosine receptor A2a (Homo sapiens) (UniProt P29274); assay: Increase of cAMP production in HEK293 cell expressing human adenosine A2A receptor at 3 uM; type: functional, cell-based
Adenosine receptor A2a (Homo sapiens), sequence (P29274 whole entry): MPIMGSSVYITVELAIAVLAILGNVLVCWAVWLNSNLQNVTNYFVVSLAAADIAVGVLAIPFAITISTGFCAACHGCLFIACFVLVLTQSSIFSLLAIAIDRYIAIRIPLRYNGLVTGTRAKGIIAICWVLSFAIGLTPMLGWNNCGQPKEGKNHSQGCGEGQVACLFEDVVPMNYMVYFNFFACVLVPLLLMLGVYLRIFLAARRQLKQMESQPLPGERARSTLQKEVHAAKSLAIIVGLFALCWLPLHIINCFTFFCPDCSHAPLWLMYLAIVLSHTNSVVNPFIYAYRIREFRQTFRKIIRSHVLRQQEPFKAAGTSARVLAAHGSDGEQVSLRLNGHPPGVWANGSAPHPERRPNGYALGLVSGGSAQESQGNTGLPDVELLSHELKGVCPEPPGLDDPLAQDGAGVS

[4] = Solubility in citrate buffer at pH 4; type: physicochemical
[5] = molecular target: T2, Adenosine receptor A2b (Homo sapiens) (UniProt P29275); assay: Increase of cAMP production in HEK293 cell expressing human adenosine A2B receptor at 3 uM; type: functional, cell-based
T2 sequence (whole entry): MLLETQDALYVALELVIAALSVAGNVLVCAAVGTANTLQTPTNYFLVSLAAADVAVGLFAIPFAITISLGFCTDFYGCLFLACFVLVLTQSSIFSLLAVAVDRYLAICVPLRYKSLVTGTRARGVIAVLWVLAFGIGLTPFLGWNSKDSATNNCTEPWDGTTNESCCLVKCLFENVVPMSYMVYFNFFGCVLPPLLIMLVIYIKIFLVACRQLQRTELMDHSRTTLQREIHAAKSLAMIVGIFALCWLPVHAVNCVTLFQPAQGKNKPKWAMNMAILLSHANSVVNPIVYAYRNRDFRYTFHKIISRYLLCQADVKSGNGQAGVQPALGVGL

Adenosine receptor A3 [6] = molecular target: T1, Adenosine receptor A3; assay: Inhibition of isoproterenol-induced increase of cAMP in HEK293 cell expressing human adenosine A3 receptor; type: functional, cell-based

Row | Ki (Adenosine receptor A3 [1]) [nM] | Selectivity ratio [2] | SMILES | other results
1 | 6.8 | 526 | CNC(=O)[C@H]1O[C@@H](n2cnc3c(NCc4cc(Cl)ccc4OCC(N)=O)ncnc32)[C@H](O)[C@@H]1N | –
2 | 130 | 222 | CNC(=O)[C@H]1O[C@@H](n2cnc3c(NCc4cc(Cl)ccc4OCC(=O)O)ncnc32)[C@H](O)[C@@H]1N | –
3 | – | 13 | CNC(=O)[C@H]1O[C@@H](n2cnc3c(NC)ncnc32)[C@H](O)[C@@H]1O | –
4 | 2.5 | 9.4 | CNC(=O)[C@H]1O[C@@H](n2cnc3c(NCc4cc(Cl)cc(Cl)c4)ncnc32)[C@H](O)[C@@H]1O | –
5 | 3.9 | 45 | CNC(=O)[C@H]1O[C@@H](n2cnc3c(NCc4cc(OC)ccc4OC)ncnc32)[C@H](O)[C@@H]1O | –
6 | 15 | 317 | CNC(=O)[C@H]1O[C@@H](n2cnc3c(NCc4cc(Cl)ccc4OC)ncnc32)[C@H](O)[C@@H]1N | –
7 | 25 | 148 | CNC(=O)[C@H]1O[C@@H](n2cnc3c(NCc4cc(Cl)cc(Cl)c4)ncnc32)[C@H](O)[C@@H]1N | –

Further lines, the compound ahead of its results:

Row | SMILES | Ki (Adenosine receptor A3 [1]) [nM] | Selectivity ratio [2] | other results
8 | CCNC(=O)N[C@H]1[C@@H](O)[C@H](n2cnc3c(NC)ncnc32)O[C@@H]1C(=O)NC | > 3000 | – | –
9 | CNC(=O)[C@H]1O[C@@H](n2cnc3c(NCc4cc(Cl)ccc4OCC(=O)N4CCNCC4)ncnc32)[C@H](O)[C@@H]1N | 9.4 | 445 | Activity [3]: 16%; solubility [4]: 50 mg/mL (≈ 89.3 mM); Activity [5]: 1%; EC50 (Adenosine receptor A3 [6]): 8.1 nM
10 | CNC(=O)[C@H]1O[C@@H](n2cnc3c(NC)ncnc32)[C@H](O)[C@@H]1N | – | 194 | –
11 | CNC(=O)[C@H]1O[C@@H](n2cnc3c(NCc4cc(Cl)ccc4OCC(=O)N4CCC(N(C)C)CC4)ncnc32)[C@H](O)[C@@H]1N | 9.1 | 456 | –
12 | CNC(=O)[C@H]1O[C@@H](n2cnc3c(NCc4cc(Cl)ccc4OCc4ccccc4)ncnc32)[C@H](O)[C@@H]1N | 16 | 691 | –
13 | CNC(=O)[C@H]1O[C@@H](n2cnc3c(NC)ncnc32)C[C@@H]1O | 87 | 12.6 | –
14 | CNC(=O)[C@H]1O[C@@H](n2cnc3c(NCc4cc(OC)ccc4OC)ncnc32)[C@H](O)[C@@H]1N | 160 | 294 | –
15 | CNC(=O)[C@H]1O[C@@H](n2cnc3c(NC)ncnc32)[C@H](O)[C@@H]1NS(C)(=O)=O | > 3000 | – | –
16 | CNC(=O)[C@@H]1C[C@@H](O)[C@H](n2cnc3c(NC)ncnc32)O1 | 59 | 6 | –
17 | CNC(=O)[C@H]1O[C@@H](n2cnc3c(NCc4cc(Cl)ccc4OCC(=O)N4CCOCC4)ncnc32)[C@H](O)[C@@H]1N | 20 | 700 | –
18 | CNC(=O)[C@H]1O[C@@H](n2cnc3c(NCc4cc(Cl)ccc4OCC(=O)N4CCCCC4)ncnc32)[C@H](O)[C@@H]1N | 18 | 720 | –
19 | CNC(=O)[C@H]1O[C@@H](n2cnc3c(NC)ncnc32)[C@H](O)[C@@H]1NC(C)=O | > 3000 | – | –
